According to patent publication US20190134033A1, “PHARMACEUTICAL COMBINATIONS” (Novartis AG, priority 2013, published 2019):

What was measured:
[1] = test system: p53; assay: Induction of p53 and its downstream target genes in ALK mutant and p53 WT neuroblastoma cell lines; type: cell-based
Protocol: (§1) Compound stocks of LDK378 (compound B) and NVP-CGM097 (compound A) are prepared in DMSO at a final concentration of 10 mM. Working stocks of compound A and compound B are serially diluted in the appropriate cell culture medium to achieve final assay concentrations ranging from 10 μM to 0.039 μM.
(§2) ALK+NB neuroblastoma cell line is disclosed in G. Barone, et al in the journal Clin. Cancer Res., Vol 19, pp 5814-5821 (2013).

[2] = test system: TRP-590A-SHSY5Y-XEF (ALK F1174L mutated); assay: SY5Y Xenograft, LDK378 and CGM097 alone and combined (FIG. 6); type: in vivo
[3] = test system: NB-1 neuroblastoma xenograft; assay: NB-1 neuroblastoma in vivo xenograft model, LDK378 and Compound C alone and combined (Example 2, FIG. 8); details: NB1 model, PO QD, LDK378 50 mg/kg, Compound C 20 mg/kg
Protocol: The combination of LDK378 (Compound B) and HDM-2/p53 inhibitor (S)-5-(5-Chloro-1-methyl-2-oxo-1,2-dihydro-pyridin-3-yl)-6-(4-chloro-phenyl)-2-(2,4- dimethoxy-pyrimidin-5-yl)-1-isopropyl-5,6-dihydro-1H-pyrrolo[3,4-d]imidazol-4-one (Compound C) were tested in NB-1 neuroblastoma in vivo xenograft model. A total of 5 animals per group were enrolled in efficacy study. For single-agent and combination studies, animals were dosed via oral gavage for both LDK378 and Compound C. LDK378 was formulated in 0.5% CMC/0.5% Tween 80, and Compound C was formulated in Methylcellulose 0.5% w/V in pH 6.8 50 mM phosphate buffer at 20 mg/kg as free base. For NB1 model, the tumors reached approximately 200 mm^3 at day 16 post implantation. On Day 16, tumor-bearing mice were randomized into treatment groups.
Animals were weighed at dosing day(s) and dose was body weight adjusted, dosing volume was 10 ml/kg. Tumor dimensions and body weights were collected at the time of randomization and twice weekly thereafter for the study duration. The following data was provided after each day of data collection: incidence of mortality, individual and group average body weights, and individual and group average tumor volume.

[4] = test system: NB-1 Xenograft; assay: NB-1 Xenograft, LDK378 single agent and combinations with CGM097 and LEE011 (FIG. 5, FIG. 7); type: in vivo
Description: FIG. 5 summarizes data for treatments with LDK378 (ALK inhibitor) and CGM097 (HDM-2/P53 Inhibitor) as single agents and in combination in a NB-1 Xenograft.
FIG. 7 summarizes data for LDK378 Single Agent and Combination Treatments with NVP-CGM097 in a NB-1 Xenograft. […] After treatment termination, tumors resumed growth.

[5] = test system: ALK; assay: ALK phosphorylation in ALK mutant and p53 WT neuroblastoma cell lines; type: cell-based
Protocol: as §1, §2

`COc1cc2c(cc1OC(C)C)[C@H](c1ccc(Cl)cc1)N(c1ccc(N(C)C[C@H]3CC[C@H](N4CCN(C)C(=O)C4)CC3)cc1)C(=O)C2` [CGM097, (S)-1-(4-Chloro-phenyl)-7-isopropoxy-6-methoxy-2-(4-{methyl-[4-(4-methyl-3-oxo-piperazin-1-yl)-trans-cyclohexylmethyl]-amino}-phenyl)-1,4-dihydro-2H-isoquinolin-3-one] was tested, and the “induction of p53 and its downstream target genes” value [1] was “caused induction of p53 and its downstream target genes” and the “tumor growth under continuous treatment” value [2] was “continued to grow”.
`COc1ncc(-c2nc3c(n2C(C)C)[C@H](c2ccc(Cl)cc2)N(c2cc(Cl)cn(C)c2=O)C3=O)c(OC)n1` [Compound C, (S)-5-(5-Chloro-1-methyl-2-oxo-1,2-dihydro-pyridin-3-yl)-6-(4-chloro-phenyl)-2-(2,4-dimethoxy-pyrimidin-5-yl)-1-isopropyl-5,6-dihydro-1H-pyrrolo[3,4-d]imidazol-4-one] was tested, and the “T/C % on day 25” value [3] was 50.8% and the “T/C % on day 25” value ([3]; listed as COMPOUND C) was 50.80%.
`Cc1cc(Nc2ncc(Cl)c(Nc3ccccc3S(=O)(=O)C(C)C)n2)c(OC(C)C)cc1C1CCNCC1` [LDK378, 5-chloro-N2-(2-isopropoxy-5-methyl-4-(piperidin-4-yl)phenyl)-N4-[2-(propane-2-sulfonyl)-phenyl]-pyrimidine-2,4-diamine] was tested, and the “tumor growth under continuous treatment” value [4] was “resumed growth before day 41”, the “T/C % on day 25” value [3] was 27.6% and the “tumor growth under continuous treatment” value [2] was “continued to grow”. The ALK phosphorylation [5] was “inhibited ALK phosphorylation”.
